Where no end group is shown, it is not given here.
Legend:
rat lacrimal secretion [1] = settings: earlier finding, no details given; cited from earlier work
PAR-2 = settings: as disclosed in JP 2001-181208A; cited from earlier work
rat lacrimal secretion [2] = assay: Rat lacrimal fluid secretion in vivo (Schirmer test paper); settings: male Wistar rat; for lacrimal secretion promoting action: peptide 5 μmol/kg i.v. one minute after amastatin 2.5 μmol/kg i.v., six minutes after administration (FIGS. 1, 3); for lacrimal secretion promoting action compared with Ser-Leu-Ile-Gly-Arg-Leu-NH2 and Ile-Gly-Arg-Leu-NH2: six minutes after administration (FIGS. 2, 4)
Procedure: An amount of lacrimal secretion which is an indication for determining an effect of promoting lacrimal secretion can be measured according to a known method such as by Iga et al. (Iga, Y. et al., Jpn. J. Pharmacol., 78, 373-80, 1998) using a rat. In particular, a rat is anesthetized with pentobarbital (50 mg/kg, intra-abdominal administration), and a paper with 2 mm width for testing the human lacrimal secretion function, the Schirmer test paper (Showa Yakuhin Kako Co., Ltd.) is inserted into a lower eyelid of the rat. After a fixed period of time has passed, the test paper is removed, and a length of the wetted portion of the test paper is measured using a caliper square. If a statistically significant increase of lacrimal secretion is observed when a test substance is administered, it can be said that the substance has the lacrimal secretion promoting action.
Male Wistar rat at 6 weeks of age was used in experiments. Each animal was housed for one week under the environment of room temperature of 23±2° C., a humidity of 50±5% and a 12 hours light/dark cycle (light: 07:00-19:00) and, thereafter, it was subjected to experiments. During the housing and experiment period, the animal was fed a solid chaw and water ad lib.
An amount of rat lacrimal fluid secretion was measured according to the method of Iga et al. (Iga, Y. et al., Jpn. J. Pharmacol., 78, 373-80, 1998). That is, the rat was anesthetized with pentobarbital (50 mg/kg, intraabdominal administration), and a paper with 2 mm width for testing human lacrimal secretion function, the Schirmer test paper (Showa Yakuhin Kako Co., Ltd.) was inserted into a lower eyelid of the rat. After the period of time fixed has passed, the test paper was removed, and a length of a wetted portion of the test paper was measured using a caliper square to define an indicator of lacrimal secretion. An amount of lacrimal fluid was measured at 1, 2, 4 and 6 minutes after administration of the peptides.
In addition, the results are shown in the mean (mm)±standard error, and the test of significance was performed according to a Tukey's multiple comparison test.
A physiological salt solution of amastatin (2.5 μmol/kg), which is an aminopeptidase inhibitor, was intravenously administrated to the rat, and after one minute, a physiological salt solution of various peptide derivatives (5 μmol/kg) was intravenously administrated. Measurements were initiated immediately after administration of the peptides.
As a control, an amount of lacrimal secretion was also measured in the case where the physiological salt solution without the peptide (solvent) was intravenously, administrated.

[3] = peptide 5 μmol/kg i.v. after amastatin 2.5 μmol/kg i.v.

Molecule	lacrimal secretion promoting action (rat lacrimal secretion [2])	other results
Ser-Leu-Ile-Gly-Arg-Leu-NH2 (SLIGRL-NH2)		lacrimal secretion promoting action (previously demonstrated) (rat lacrimal secretion [1]): previously demonstrated to have the lacrimal secretion promoting action; activation of PAR-2 (PAR-2): activates PAR-2
cyclo-L-Arg-L-Leu-NH2 [cyclo-Arg-Leu]	did not entirely influence on lacrimal secretion	
L-Arg-L-Leu-NH2 [(L)Arg-(L)Leu-NH2]	promote lacrimal secretion	lacrimal secretion promoting action compared with Ser-Leu-Ile-Gly-Arg-Leu-NH2 and Ile-Gly-Arg-Leu-NH2 (rat lacrimal secretion [2]; [3]): lower than those of Ser-Leu-Ile-Gly-Arg-Leu-NH2 and Ile-Gly-Arg-Leu-NH2
D-Arg-L-Leu-NH2 [(D) Arg-(L)Leu-NH2]	did not entirely influence on lacrimal secretion	
Ile-Gly-Arg-Leu-NH2 (IGRL-NH2) [Ile-Gly-Arg-Leu-NH7]		lacrimal secretion promoting action (previously demonstrated) (rat lacrimal secretion [1]): previously demonstrated to have the lacrimal secretion promoting action
L-Arg-D-Leu-NH2 [(L)Arg-(D)Leu-NH2]	did not entirely influence on lacrimal secretion	
D-Arg-D-Leu-NH2 [(D)Arg-(D)Leu-NH2]	did not entirely influence on lacrimal secretion	
CC(C)C[C@H](NC(=O)[C@H](CCCNC(=N)N)NC(=O)c1ccco1)C(N)=O [2-furoyl-(L)Arg-(L)Leu-NH2, N-(2-furoyl)-L-Arg-L-Leu-NH2]	potent lacrimal secretion promoting action	duration of the lacrimal secretion promoting action compared with Ser-Leu-Ile-Gly-Arg-Leu-NH2 and Ile-Gly-Arg-Leu-NH2 (rat lacrimal secretion [2]; peptide 5 μmol/kg i.v. after amastatin 2.5 μmol/kg i.v., measured at 1, 2, 4 and 6 minutes (FIG. 5)): maintained over a longer period of time; lacrimal secretion promoting action compared with Ser-Leu-Ile-Gly-Arg-Leu-NH2 and Ile-Gly-Arg-Leu-NH2 (rat lacrimal secretion [2]; [3]): almost the same as those of Ser-Leu-Ile-Gly-Arg-Leu-NH2 and Ile-Gly-Arg-Leu-NH2

From US8383595B2, “Peptide derivative and composition for promoting tear secretion comprising the same” (Kinki University, priority 2008, dated 2013)
